Measurements from PubChem BioAssay AID330 (DTP/NCI, 2004).
Where “and” joins values, the source holds several entries; their conditions need not be identical. Equal values may be shown once. Inconclusive results and toxic doses are left out.

Test system: P388 leukemia ip, CD2F1 mice, survival T/C
Test: NCI In Vivo Anticancer Drug Screen. Data for tumor model P388 Leukemia (intraperitoneal) in CD2F1 (CDF1) mice
Conditions: endpoint: median survival time, higher = longer survival
Procedure, shortened: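 Mice carrying the transplanted tumor received test compound or vehicle. Survival was recorded in each group, and the value is the treated-group measurement divided by that of the vehicle-treated control group.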

[1] = dose: 50.0 mg/kg/injection, schedule: Q01DX009 (ip), vehicle: saline with Tween-80
[2] = dose: 15.0 mg/kg/injection, schedule: Q01DX005 (ip), vehicle: saline with Tween-80
[3] = dose: 30.0 mg/kg/injection, schedule: Q01DX005 (ip), vehicle: saline with Tween-80
[4] = dose: 60.0 mg/kg/injection, schedule: Q01DX005 (ip), vehicle: saline with Tween-80
[5] = dose: 25.0 mg/kg/injection, schedule: Q01DX009 (ip), vehicle: saline with Tween-80
[6] = dose: 60.0 mg/kg/injection, schedule: Q01DX005 (ip), vehicle: Klucel (hydroxypropylcellulose) (HPC)
[7] = dose: 120.0 mg/kg/injection, schedule: Q01DX005 (ip), vehicle: Klucel (hydroxypropylcellulose) (HPC)
[8] = dose: 50.0 mg/kg/injection, schedule: Q01DX005 (ip), vehicle: saline with Tween-80
[9] = dose: 100.0 mg/kg/injection, schedule: Q01DX005 (ip), vehicle: saline with Tween-80
[10] = dose: 200.0 mg/kg/injection, schedule: Q01DX005 (ip), vehicle: saline with Tween-80
[11] = dose: 50.0 mg/kg/injection, schedule: Q01DX005 (ip), vehicle: Klucel (hydroxypropylcellulose) (HPC)
[12] = dose: 100.0 mg/kg/injection, schedule: Q01DX005 (ip), vehicle: Klucel (hydroxypropylcellulose) (HPC)
[13] = dose: 200.0 mg/kg/injection, schedule: Q01DX005 (ip), vehicle: Klucel (hydroxypropylcellulose) (HPC)
[14] = dose: 120.0 mg/kg/injection, schedule: Q01DX005 (ip), vehicle: saline with Tween-80
[15] = dose: 100.0 mg/kg/injection, schedule: Q04DX002 (ip), vehicle: saline with Tween-80
[16] = dose: 200.0 mg/kg/injection, schedule: Q04DX002 (ip), vehicle: saline with Tween-80

## O=[N+]([O-])/C=C/c1c(Cl)cccc1Cl
dose: 12.5 mg/kg/injection, schedule: Q04DX003 (ip), vehicle: saline with Tween-80
  T/C: 99 % of control
dose: 25.0 mg/kg/injection, schedule: Q04DX003 (ip), vehicle: saline with Tween-80
  T/C: 100 % of control
dose: 50.0 mg/kg/injection, schedule: Q04DX003 (ip), vehicle: saline with Tween-80
  T/C: 100 % of control

## CCCCOC(=O)N(C)SN(C)C(=O)Oc1cccc(C(C)C)c1
[1]
  T/C: 121 % of control

## COc1cc(C)c(/C(=N/O)n2nnc(-c3ccccc3)n2)c(C)c1
[2]
  T/C: 98 % of control
[3]
  T/C: 100 % of control
[4]
  T/C: 100 % of control and 91 % of control

## Oc1c(Br)cc(Br)cc1C1CCCCC1
[5]
  T/C: 110 % of control
[1]
  T/C: 119 % of control
dose: 100.0 mg/kg/injection, schedule: Q01DX009 (ip), vehicle: saline with Tween-80
  T/C: 107 % of control
dose: 200.0 mg/kg/injection, schedule: Q01DX009 (ip), vehicle: saline with Tween-80
  T/C: 113 % of control

## Cc1n[nH]c(=O)n(/N=C/c2ccc(N(C)C)cc2)c1=O
[6]
  T/C: 98 % of control
[7]
  T/C: 97 % of control

## NCCNC[Si](c1ccccc1)(c1ccccc1)c1ccccc1
[2]
  T/C: 102 % of control
[3]
  T/C: 102 % of control

## CCOC(=O)Cc1ccc2c(c1)sc1nc(-c3ccc(OC)cc3)cn12
dose: 50.0 mg/kg/injection, schedule: Q01DX009 (ip), vehicle: DMSO
  T/C: 104 % of control
dose: 100.0 mg/kg/injection, schedule: Q01DX009 (ip), vehicle: DMSO
  T/C: 103 % of control
dose: 200.0 mg/kg/injection, schedule: Q01DX009 (ip), vehicle: DMSO
  T/C: 94 % of control

## CCOc1cc(/C=N\Nc2nnc(C)n2N)c(C)cc1N(CCCl)CCCl
dose: 0.22 mg/kg/injection, schedule: Q01DX009 (ip), vehicle: saline with Tween-80
  T/C: 110 % of control
dose: 0.33 mg/kg/injection, schedule: Q01DX009 (ip), vehicle: saline with Tween-80
  T/C: 105 % of control
dose: 0.5 mg/kg/injection, schedule: Q01DX009 (ip), vehicle: saline with Tween-80
  T/C: 110 % of control
dose: 0.75 mg/kg/injection, schedule: Q01DX009 (ip), vehicle: saline with Tween-80
  T/C: 120 % of control
dose: 1.25 mg/kg/injection, schedule: Q04DX003 (ip), vehicle: saline
  T/C: 100 % of control
dose: 2.0 mg/kg/injection, schedule: Q01DX009 (ip), vehicle: saline with Tween-80
  T/C: 160 % of control
dose: 2.5 mg/kg/injection, schedule: Q04DX003 (ip), vehicle: saline
  T/C: 100 % of control
dose: 4.0 mg/kg/injection, schedule: Q01DX009 (ip), vehicle: saline with Tween-80
  T/C: 185 % of control
dose: 5.0 mg/kg/injection, schedule: Q04DX003 (ip), vehicle: saline
  T/C: 103 % of control

## CC(NC(=O)C(CO)NC(=O)CN)C(=O)O (stereo not given)
dose: 50.0 mg/kg/injection, schedule: Q01DX005 (ip), vehicle: saline
  T/C: 101 % of control
dose: 100.0 mg/kg/injection, schedule: Q01DX005 (ip), vehicle: saline
  T/C: 99 % of control
dose: 200.0 mg/kg/injection, schedule: Q01DX005 (ip), vehicle: saline
  T/C: 105 % of control

## COc1cc(C[C@H](CO)[C@@H](CO)Cc2ccc3c(c2)OCO3)cc(OC)c1OC
dose: 6.25 mg/kg/injection, schedule: Q04DX002 (ip), vehicle: saline with Tween-80
  T/C: 95 % of control
dose: 12.5 mg/kg/injection, schedule: Q04DX002 (ip), vehicle: saline with Tween-80
  T/C: 102 % of control
dose: 25.0 mg/kg/injection, schedule: Q04DX002 (ip), vehicle: saline with Tween-80
  T/C: 106 % of control

## COc1ccc2ccc3nonc3c2c1
[8]
  T/C: 92 % of control
[9]
  T/C: 99 % of control
[10]
  T/C: 91 % of control

## CCCCCCCCCCCCCCCCCCSC1=CC(=O)c2ccccc2C1=O
dose: 3.13 mg/kg/injection, schedule: Q01DX009 (ip), vehicle: saline with Tween-80
  T/C: 95 % of control
dose: 6.25 mg/kg/injection, schedule: Q01DX009 (ip), vehicle: saline with Tween-80
  T/C: 95 % of control
dose: 12.5 mg/kg/injection, schedule: Q01DX009 (ip), vehicle: saline with Tween-80
  T/C: 90 % of control
[5]
  T/C: 89 % of control
[1]
  T/C: 97 % of control

## CCN(CC)CCOC(=O)Cc1cccc2c(=O)cc(-c3ccc(OC)cc3)oc12
dose: 12.5 mg/kg/injection, schedule: Q01DX005 (ip), vehicle: Klucel (hydroxypropylcellulose) (HPC)
  T/C: 113 % of control
dose: 25.0 mg/kg/injection, schedule: Q01DX005 (ip), vehicle: Klucel (hydroxypropylcellulose) (HPC)
  T/C: 113 % of control
[11]
  T/C: 98 % of control
[12]
  T/C: 121 % of control

## C=CC1(C)OC(=NC(C)(C)CO)c2cc(C)c(OC)cc21 (stereo not given)
[8]
  T/C: 98 % of control
[9]
  T/C: 97 % of control

## COc1cc(/C=N/NC(=O)c2ccc(NC(C)=O)cc2)ccc1O
[11]
  T/C: 90 % of control
[12]
  T/C: 90 % of control
[13]
  T/C: 90 % of control

## Oc1ccc2ccccc2c1N=Nc1nn[nH]n1
[8]
  T/C: 99 % of control
[9]
  T/C: 106 % of control

## O=Cc1c(-c2ccccc2)nc2sc(-c3ccc4c(c3)OCO4)nn12
[4]
  T/C: 102 % of control
[14]
  T/C: 99 % of control
dose: 240.0 mg/kg/injection, schedule: Q01DX005 (ip), vehicle: saline with Tween-80
  T/C: 99 % of control

## CNC(=O)Oc1[nH]c(=O)ncc1I
dose: 50.0 mg/kg/injection, schedule: Q04DX002 (ip), vehicle: saline with Tween-80
  T/C: 100 % of control
[15]
  T/C: 108 % of control and 109 % of control and 110 % of control
[16]
  T/C: 105 % of control and 116 % of control

## COc1ccc2c(c1)CCC(C(O)C1(Sc3c(OC)cccc3OC)CC1)C2=O (stereo not given)
[8]
  T/C: 100 % of control
[9]
  T/C: 100 % of control
[10]
  T/C: 100 % of control

## COc1ccc(OC)c(/C=C/c2cnnc3ccccc23)c1
dose: 18.75 mg/kg/injection, schedule: Q04DX003 (ip), vehicle: Klucel (hydroxypropylcellulose) (HPC)
  T/C: 100 % of control
dose: 37.5 mg/kg/injection, schedule: Q04DX003 (ip), vehicle: Klucel (hydroxypropylcellulose) (HPC)
  T/C: 111 % of control
dose: 75.0 mg/kg/injection, schedule: Q04DX003 (ip), vehicle: Klucel (hydroxypropylcellulose) (HPC)
  T/C: 100 % of control
dose: 150.0 mg/kg/injection, schedule: Q04DX003 (ip), vehicle: Klucel (hydroxypropylcellulose) (HPC)
  T/C: 106 % of control
dose: 300.0 mg/kg/injection, schedule: Q04DX003 (ip), vehicle: Klucel (hydroxypropylcellulose) (HPC)
  T/C: 103 % of control

## [N-]=[N+]=NC(=O)Nc1cccc(C(F)(F)F)c1
dose: 15.0 mg/kg/injection, schedule: Q01DX005 (ip), vehicle: Klucel + Tween-80
  T/C: 103 % of control
dose: 30.0 mg/kg/injection, schedule: Q01DX005 (ip), vehicle: Klucel + Tween-80
  T/C: 96 % of control
dose: 60.0 mg/kg/injection, schedule: Q01DX005 (ip), vehicle: Klucel + Tween-80
  T/C: 100 % of control and 93 % of control

## N#CCc1ccccc1Br
[8]
  T/C: 93 % of control
[9]
  T/C: 101 % of control

## Cc1nn(C)c(=O)c(N)c1-c1cc(-c2ccc(Cl)cc2)n[nH]1
[4]
  T/C: 89 % of control
[14]
  T/C: 88 % of control

## Cc1c2sc3ccccc3[nH]c2nc2[nH]c3ccccc3sc12
[8]
  T/C: 108 % of control
[9]
  T/C: 116 % of control
[10]
  T/C: 108 % of control

## CC(=O)NS(=O)(=O)c1ccc(N/N=C(\C#N)C(N)=O)cc1
[11]
  T/C: 92 % of control
[12]
  T/C: 100 % of control

## CC1(C)C(=O)c2cc3ccccc3nc2-c2ccccc21
[8]
  T/C: 100 % of control
[9]
  T/C: 99 % of control
[10]
  T/C: 105 % of control

## CCCCCCCCCCCCNCC(=O)O
dose: 25.0 mg/kg/injection, schedule: Q01DX009 (ip), vehicle: saline
  T/C: 109 % of control
dose: 50.0 mg/kg/injection, schedule: Q01DX009 (ip), vehicle: saline
  T/C: 113 % of control

## C=C(C)COC(=O)C1C2CC(C3OC23)C1C(=O)OCC(=C)C (stereo not given)
[11]
  T/C: 102 % of control
[12]
  T/C: 104 % of control
[13]
  T/C: 100 % of control

## CC(O)(c1ccco1)c1nc2ccccc2s1 (stereo not given)
[6]
  T/C: 101 % of control
[7]
  T/C: 101 % of control

## COc1ccc2c3c1OC1c4[nH]ncc4C[C@H]4[C@@H](C2)N(C)CC[C@]314 (stereo not given in full)
[15]
  T/C: 108 % of control
[16]
  T/C: 99 % of control
